Source: patent publication US20240344035A1, “Culture Medium and Culture Method for Human Primary Acute Myeloid Leukemia Cells” (PRECEDO PHARMACEUTICALS CO., LTD, priority 2021, published 2024)

Tests used:
Type in all cases: cell-based
[1] = system: human primary acute myeloid leukemia cells; experiment: Effect of single added factors in Basal Medium on proliferation (CCK-8); settings: additive at the listed final concentration in Basal Medium; samples A17007, A25104; 5 to 8 days; CCK-8, 450 nm; versus Basal Medium
Description: First, the Basal Medium was prepared. The formulation of the Basal Medium was monocyte serum-free medium (purchased from BI, 05-080-1A)+10% (v/v) fetal bovine serum (purchased from ExCell Bio, FND500)+100 μg/mL Primocin (purchased from InvivoGen, 0.2% (v/v), the commercial product concentration is 50 mg/mL).
Different types of growth factors (see Table 1) were added to the Basal Medium to prepare culture mediums for human primary acute myeloid leukemia cells containing different added components.
The culture mediums of different compositions in Table 1 were added into a 96-well plate in a volume of 100 μL/well. Human primary acute myeloid leukemia cells isolated from two cases of human primary acute myeloid leukemia bone marrow samples (numbered A17007, A25104, from the First Affiliated Hospital of Anhui Medical University) according to the above step (2) were inoculated in the 96-well culture plate at a density of 1×10^4 cells/well and cultured at 37° C. and 5% […]. After 5 to 8 days of culture, the cells grew to 70% to 85%, and 10 μL of Cell Counting Kit-8 (CCK-8, purchased from MCE) was added to each well and incubated at 37° C. and 5% CO2 for 2 to 4 hours. The substances in each well were mixed, and the plate was read using a multifunctional microplate reader (Multi-Mode Detection Platform, American Molecular Instruments (Shanghai) Co., Ltd.) at 450 nm. The Basal Medium without addition of any additive was used as a control.

[2] = system: human primary acute myeloid leukemia cells; experiment: Effect of combinations of added factors on proliferation (viable cell counting, FIG. 1); settings: six bone marrow samples
Description: The culture mediums for human primary acute myeloid leukemia cells containing different combinations of added factors were prepared according to the components in Table 2, to investigate the proliferation-promoting effects of different added factor combinations on human primary acute myeloid leukemia cells.
Human primary acute myeloid leukemia cells were obtained from human primary acute myeloid leukemia bone marrow samples (numbered A17151, A17152, A20090, A20101, A21004, A20141) according to the process of step (2)-3 of Example 1. The obtained cell suspension was divided into 11 equal parts, which were then centrifuged at 1500 rpm for 4 minutes. After centrifugation, the cells were resuspended with 200 μL BM or No. 1 to 10 culture medium, respectively, and inoculated into a 48-well plate at a viable cell density of 2×10^4 cells/well (20,000 cells per well). Each well in the 48-well plate was supplemented to a volume of 1 mL with the corresponding culture mediums, and the resultant was fully mixed. After surface disinfection, the plate was placed in a 37° C., 5% CO2 incubator (purchased from Thermo Fisher) for culture.
The cells in the 48-well plate grew to more than 85% and were transferred to a 15 mL centrifuge tube which was then centrifuged at 1500 rpm for 5 minutes. 500 μL of monocyte serum-free medium was added to the centrifuge tube to resuspend the cell pellet. 12 μL of the resuspended cell suspension was fully mixed with 12 μL of trypan blue dye (Sangon Biotech (Shanghai) Co., Ltd.), and then 20 μL of the mixture was added into a cell counting plate (Countstar, specifications: 50 pieces/box). The percentage of viable large cells (cell size>10 μm) were calculated using a cell counter (Countstar, IC1000) (percentage of viable large cells (cell size>10 μm)=number of viable cells/total number of cells*100%). The results obtained from human primary acute myeloid leukemia cells of bone marrow samples A17151, A17152, A20090, A20101, A21004, and A20141 are shown in FIG. 1.

[3] = system: human primary acute myeloid leukemia cells; experiment: Proliferative effects of different concentrations of added factors (ratio to Blank Control, FIGS. 2A-2H); settings: for concentration at which the cell proliferation effect is most significant: five concentrations tested; for proliferation-promoting effect of the factor: samples A23065, A17112, factor added back to formulation lacking it
Description: Human primary acute myeloid leukemia cells were obtained from human primary acute myeloid leukemia bone marrow samples (numbered A23065, A17112) according to the process of step (2)-3 of Example 1. The cells were resuspended with Basal Medium (monocyte serum-free medium+10% (v/v) fetal bovine serum+100 μg/mL Primocin) for later use.
20 μl of cell suspension containing 4×10^4 cells was added to each well, and the suspension was diluted with 1 mL medium of the above Formulations 1-8, respectively.
(§1) When using the culture medium of Formulation 1, the prepared glutamine additive was added respectively to a 48-well plate inoculated with primary cells, with 1 mL per well, and the final concentration of glutamine additive was 0.5 mM, 1 mM, 2 mM, 4 mM, 8 mM, respectively; a well of Blank Control (BC) was set using the culture medium of Formulation 1.
as §1, with “2,” for “1,”, “human SCF” for “glutamine additive”, “was” for “was 0.5 mM,”, “ng/mL, 3 ng/mL, 9 ng/mL, 27 ng/mL, 81 ng/mL,” for “mM, 2 mM, 4 mM, 8 mM,”, “2.” for “1.”
as §1, with “5,” for “1,”, “human FLT3L” for “glutamine additive”, “was” for “was 0.5 mM,”, “ng/mL, 3 ng/mL, 9 ng/mL, 27 ng/mL, 81 ng/mL,” for “mM, 2 mM, 4 mM, 8 mM,”, “5.” for “1.”
When using the culture medium of Formulation 6, the prepared non-essential amino acids were added respectively to a 48-well plate inoculated with primary cells, with 1 mL per well, and the final concentration of non-essential amino acids was 12.5 µM, 25 µM, 50 µM, 100 µM, 200 µM, respectively; a well of Blank Control (BC) was set using the culture medium of Formulation 6.
as §1, with “8,” for “1,”, “human M-CSF” for “glutamine additive”, “was” for “was 0.5 mM,”, “ng/mL, 3 ng/mL, 9 ng/mL, 27 ng/mL, 81 ng/mL,” for “mM, 2 mM, 4 mM, 8 mM,”, “8.” for “1.”
In FIGS. 2A to 2H, the ratio is a ratio of the number of cells of the first passage cultured by using each culture medium to the number of cells of the first passage cultured in the corresponding well of Blank Control.

Molecule | Level of promoting cell proliferation [1] | proliferation-promoting effect of the factor (omission from No. 1 medium) [2] | concentration at which the cell proliferation effect is most significant [3] | proliferation-promoting effect of the factor [3]
C[C@@H](N)[C@H]1CC[C@H](C(=O)Nc2ccncc2)CC1 [Y-27632, reference compound] | − |  |  | 
human interleukin-5 [human IL-5] | − |  |  | 
human interleukin-6 [human IL-6] | + | significantly promote the proliferation | 5.67 ng/mL | significant proliferation-promoting effect
human interleukin-7 [human IL-7] | + | significantly promote the proliferation | 17 ng/mL | significant proliferation-promoting effect
human leukocyte interferon [human IFN-α] | + |  |  | 
human stem cell factor [human SCF] | + | significantly promote the proliferation | 9 ng/mL | significant proliferation-promoting effect
human thrombopoietin [human TPO] | − |  |  | 
human granulocyte colony stimulating factor (protein, UniProt P09919 31-207, looked up, growth factor additive from Sino Biological) Granulocyte …: TPLGPASSLPQSFLLKCLEQVRKIQGDGAALQEKLVSECATYKLCHPEELVLLGHSLGIPWAPLSSCPSQALQLAGCLSQLHSGLFLYQGLLQALEGISPELGPTLDTLQLDVADFATTIWQQMEELGMAPALQPTQGAMPAFASAFQRRAGGVLVASHLQSFLEVSYRVLRHLAQP | − |  |  | 
human interleukin-4 (protein, UniProt P05112 25-153, looked up, cytokine additive from Sino Biological) Interleukin-4: HKCDITLQEIIKTLNSLTEQKTLCTELTVTDIFAASKNTTEKETFCRAATVLRQFYSHHEKDTRCLGATAQQFHRHKQLIRFLKRLDRNLWGLAGLNSCPVKEANQSTLENFLERLKTIMREKYSKCSS | − |  |  | 
human interleukin-10 (protein, UniProt P22301 19-178, looked up, cytokine additive from Sino Biological) Interleukin-10: SPGQGTQSENSCTHFPGNLPNMLRDLRDAFSRVKTFFQMKDQLDNLLLKESLLEDFKGYLGCQALSEMIQFYLEEVMPQAENQDPDIKAHVNSLGENLKTLRLRLRRCHRFLPCENKSKAVEQVKNAFNKLQEKGIYKAMSEFDIFINYIEAYMTMKIRN | − |  |  | 
human interleukin-11 (protein, UniProt P20809 22-199, looked up, cytokine additive from Sino Biological) Interleukin-11: PGPPPGPPRVSPDPRAELDSTVLLTRSLLADTRQLAAQLRDKFPADGDHNLDSLPTLAMSAGALGALQLPGVLTRLRADLLSYLRHVQWLRRAGGSSLKTLEPELGTLQARLDRLLRRLQLLMSRLALPQPPPDPPAPPLAPPSSAWGGIRAAHAILGGLHLTLDWAVRGLLLLKTRL | − |  |  | 
human interleukin-22 (protein, UniProt Q9GZX6 34-179, looked up, cytokine additive from Peprotech) Interleukin-22: APISSHCRLDKSNFQQPYITNRTFMLAKEASLADNNTDVRLIGEKLFHGVSMSERCYLMKQVLNFTLEEVLFPQSDRFQPYMQEVVPFLARLSNRLSTCHIEGDDLHIQRNVQKLKDTVKKLGESGEIKAIGELDLLFMSLRNACI | − |  |  | 
recombinant human macrophage colony-stimulating factor (protein, UniProt P09603 33-554, looked up, growth factor additive from Sino Biological) Macrophage colony-stimulating …: EEVSEYCSHMIGSGHLQSLQRLIDSQMETSCQITFEFVDQEQLKDPVCYLKKAFLLVQDIMEDTMRFRDNTPNAIAIVQLQELSLRLKSCFTKDYEEHDKACVRTFYETPLQLLEKVKNVFNETKNLLDKDWNIFSKNCNNSFAECSSQDVVTKPDCNCLYPKAIPSSDPASVSPHQPLAPSMAPVAGLTWEDSEGTEGSSLLPGEQPLHTVDPGSAKQRPPRSTCQSFEPPETPVVKDSTIGGSPQPRPSVGAFNPGMEDILDSAMGTNWVPEEASGEASEIPVPQGTELSPSRPGGGSMQTEPARPSNFLSASSPLPASAKGQQPADVTGTALPRVGPVRPTGQDWNHTPQKTDHPSALLRDPPEPGSPRISSLRPQGLSNPSTLSAQPQLSRSHSSGSVLPLGELEGRRSTRDRRSPAEPEGGPASEGAARPLPRFNSVPLTDTGHERQSEGSFSPQLQESVFHLLVPSVILVLLAVGGLLFYRWRRRSHQEPQRADSPLEQPEGSPLTQDDRQVELPV | + | significantly promote the proliferation | 27 ng/mL | significant proliferation-promoting effect
recombinant human FLT3 Ligand (protein, UniProt P49771 27-235, looked up, growth factor additive from Sino Biological) Fms-related tyrosine kinase 3 …: TQDCSFQHSPISSDFAVKIRELSDYLLQDYPVTVASNLQDEELCGGLWRLVLAQRWMERLKTVAGSKMQGLLERVNTEIHFVTKCAFQPPPSCLRFVQTNISRLLQETSEQLVALKPWITRQNFSRCLELQCQPDSSTLPPPWSPRPLEATAPTAPQPPLLLLLLLPVGLLLLAAAWCLHWQRTRRRTPRPGEQVPPVPSPQDLLLVEH | + | significantly promote the proliferation | 27 ng/mL | significant proliferation-promoting effect
